Assay results from patent EP3771487A1, “METHOD FOR THE SIMULTANEOUS DETERMINATION OF VARIOUS ANALYTES IN AN ENVIRONMENTAL SAMPLE AND / OR AN AGRICULTURAL RAW MATERIAL BASED ON CORE-SHELL MICROPARTICLES” (Bundesrepublik Deutschland, vertreten durch den …, priority 2019, dated 2021).

Experiments:
anti-DCF mAb [1] = assay: SAFIA (indirect competitive particle-based suspension array fluorescence immunoassay), DCF channel; format: binding, Maus; settings: for Molare Kreuzreaktivität DCF (SAFIA): method of Abraham, anti-DCF antibody
Description: (§1) Indirekt kompetitiver partikelbasierter Immunoassay: Alle Immunoassays wurden in schwarzen, nicht-bindenden Mikrotiterplatten mit flachem Boden (Greiner Bio-One) durchgeführt. Zum Verdünnen der Suspension der Mikropartikel (Beads) und der biochemischen Reagenzien wurde TRIS-gepufferte Salzlösung (10 mM Tris (hydroxymethyl)aminomethan, 150mM NaCl, pH = 8,5) verwendet. Zunächst wurden 50 µL der Probe oder des Standards und 50 µl einer Mischung der primären (prim.) Antikörper anti-CAF (272 µg/L), anti-CBZ (350 µg/L), anti-DCF (20 µg/L), anti-OTA (50 ng/L), anti-ZON (250µg/L) und anti-ILA (Verdünnung des (polyklonalen) Antiserums: 1:10.000) während 5 Minuten auf einem Kreisschüttler (Titra-max 101, Heidolph) bei 750 U/min geschüttelt. Zur Kalibrierung wurde eine 8-Punkt Verdünnungsserie eines Mischstandards jedes Analyten umfassend Konzentrationen von 10.000 µg/L bis 1 ng/L verwendet, der durch serielle Verdünnung einer methanolischen Stammlösung von 1 mg/mL jedes einzelnen Analyten mit ultrareinem Wasser hergestellt worden war. Danach wurden 20 µL einer Mischung der fluoreszenzkodierten, Hapten-gekoppelten Mikropartikel (Mikropartikel) zugesetzt und für weitere 5 min geschüttelt. Um ein Messsignal der gebundenen Antikörper zu erhalten, wurden 100 µL Alexa Fluor™488 Ziege anti-mouse (und anti-Kaninchen) IgG(H+L), je 2 µg/mL Antikörper (dye 2 red-kodierte Partikel), oder Alexa Fluor™647 Ziege anti-Maus (und anti-Kaninchen) IgG(H+L), je 2 µg/ml Antikörper (dye 1 green kodierte Partikel) den Kern/Schale-Partikeln zugesetzt und für 15 min inkubiert.
(§2) Abschließend wurden, um den Assay zu stoppen, 100 µL einer 6%-igen Formaldehyd-Lösung (aus 37% HCHO/10-15% MeOH Stammlösung, (w/w)), 2% MeOH und 0.01% SDS in PBS zugesetzt und für mindestens 10 min inkubiert. Die Mischung jedes Kavität wurde in einem BD Accuri C6 oder BD AccuriC6 plus Durchflusszytometer bei einer Flussrate von 66 µL/min während 30 s analysiert, wobei ein Schwellwert von 80.000 a.u. am FSC Detektor und ein Probeninjektionsport (SIP)- Reinigungszyklus zwischen den einzelnen Durchläufen eingeschoben wurde, um ein Verschleppen (Übertrag) zu verhindern. Standards und Proben wurden zufällig über die Mikrotiterplatte verteilt angeordnet, um einen Einfluss von Signaldrift und Randeffekte möglichst auszuschließen. Zum Testen der Bindungs-Selektivität wurde jeder Antikörper separat mit jedem haptenmodifizierten (d.h. Haptengekoppeltem) Set der verwendeten Kern/Schale-Mikropartikel inkubiert. Die hier als Fixierlösung verwendete Lösung umfasst bevorzugt Formaldehyd im Konzentrationsbereich 1-10 % vol/vol), Methanol (1-10 % vol/vol) und Natriumdodecylsulfat (0,001-10 % m/m). Statt Formaldehyd können auch andere Aldehyde mit quervernetzenden Eigenschaften (z.B. Glyoxal, Glutarladehyd, Malondialdehyd, Dipalaldehyd) eingesetzt werden. Statt Natriumdodecylsulfat können andere Detergenzien (z.B. Tween20, TitronX, Genapol, CTAB) verwendet werden.
(§3) Datenbehandlung: Alle zytometrischen Daten wurden zunächst nach Streuwerten gegated (FSC/SSC (gate "size": vgl. Fig. 2E) um Partikelaggregate von der Berechnung auszuschließen. Danach wurden vier Gates am FSC/FL-4 (dye 2 red kodierte Partikel, Fig. 2F) oder FSC/FL-1 (dye 1 green kodierte Partikel) verwendet, um die Partikel zu dekodieren und die Analyt-bezogene mittlere Fuoreszenzintensität zu berechnen (vgl. Fig. 2G). Mittelwerte und Standardabweichungen von Wiederholungsmessungen wurden gegen die Konzentration der entsprechenden Analyte auf einer logarithmischen Skale abgetragen. Die von Rodbard eingeführte (Rodbard, D. Biometrics 1975, 31, 599-600) Vier-Parameter-Eichkurve wurde nach der Methode der kleinsten Fehlerquadrate mittels Origin® ver. 9 Grafik-Software gefittet. Ausreißer wurden mittels Grubbs Test bei einem SignifikanzNiveau α = 0,05 identifiziert und eliminiert. Welch's t-Test wurde mit einem Signifikanzniveau von α = 0,05 unter Zuhilfenahme von Origin® 9 verwendet. […]

anti-CBZ mAb [2] = settings: anti-CBZ antibody; cited from earlier work
anti-CBZ mAb [3] = assay: SAFIA (indirect competitive particle-based suspension array fluorescence immunoassay), CBZ channel; format: binding, Maus; settings: for Molare Kreuzreaktivität CBZ (SAFIA): method of Abraham, anti-CBZ antibody
Description: as §1, §2, §3

anti-ILA Antiserum [4] = assay: SAFIA (indirect competitive particle-based suspension array fluorescence immunoassay), ILA channel; format: binding, Kaninchen; settings: for Molare Kreuzreaktivität ILA (SAFIA): method of Abraham, anti-ILA antiserum
Description: as §1, §2, §3

[5] = tested on: anti-CAF Antikörper (mAb); assay: SAFIA (indirect competitive particle-based suspension array fluorescence immunoassay), CAF channel; format: binding, Maus; settings: for Molare Kreuzreaktivität CAF (SAFIA): method of Abraham, anti-CAF antibody
Description: as §1, §2, §3

anti-DCF mAb [6] = settings: anti-DCF antibody; cited from earlier work
[7] = tested on: anti-CAF Antikörper (mAb); settings: anti-CAF antibody; cited from earlier work
anti-ILA Antiserum [8] = settings: cited from earlier work
[9] = calibration curve, dye 2 red coded particles, Alexa Fluor™488 secondary antibody

| IC50 "Dye 2 Red" (anti-DCF mAb [1]; [9]) | Structure (SMILES) | Molare Kreuzreaktivität DCF (SAFIA) (anti-DCF mAb [1]) | Molare Kreuzreaktivität CBZ (ELISA) (anti-CBZ mAb [2]) | Molare Kreuzreaktivität CBZ (SAFIA) (anti-CBZ mAb [3]) | Molare Kreuzreaktivität ILA (SAFIA) (anti-ILA Antiserum [4]) | Molare Kreuzreaktivität CAF (SAFIA) [5] | Molare Kreuzreaktivität DCF (ELISA) (anti-DCF mAb [6]) [%] | Molare Kreuzreaktivität CBZ (SAFIA) (anti-CBZ mAb [3]; listed as Carbamazepin-10,1-L-epoxid) [%] | Molare Kreuzreaktivität CAF (ELISA) [7] | IC50 "Dye 2 Red" [5, 9] | IC50 "Dye 2 Red" (anti-CBZ mAb [3]; [9]) | Molare Kreuzreaktivität ILA (ELISA) (anti-ILA Antiserum [8]) | IC50 "Dye 2 Red" (anti-ILA Antiserum [4]; [9]) |
| --- | --- | --- | --- | --- | --- | --- | --- | --- | --- | --- | --- | --- | --- |
|  | NC(=O)N1c2ccccc2C=Cc2ccc(O)cc21 [3-Hydroxycarbamazepin] | <0,1% | 5,1% | 20,2% | < 0,1% | <0,1% |  |  |  |  |  |  |  |
|  | O=C(O)Cc1ccccc1Nc1c(Cl)cc(O)cc1Cl [4'-Hydroxydiclofenac] | <0,1% |  | <0,1% | <0,1% | <0,1% | 11 |  |  |  |  |  |  |
|  | O=C(O)Cc1cc(O)ccc1Nc1c(Cl)cccc1Cl [5'-Hydroxydiclofenac] | 9,8% |  | <0,1% | <0,1% | <0,1% | 13 |  |  |  |  |  |  |
|  | NC(=O)N1c2ccccc2C(O)C(O)c2ccccc21 (centres unmarked) [10,11-Dihydroxy-carbamazepin] | < 0,1% | 0,1% | 0,3% |  | <0,1% |  |  |  |  |  |  |  |
|  | NC(=O)N1c2ccccc2C2OC2c2ccccc21 (centres unmarked) [10,11-Epoxycarbamazepin] | <0,1% | 140% | 117% | < 0,1% | <0,1% |  | 118 |  |  |  |  |  |
|  | O=C(O)COC(=O)Cc1ccccc1Nc1c(Cl)cccc1Cl [Aceclofenac] | 16,6% |  | <0,1% | <0,1% | <0,1% |  |  |  |  |  |  |  |
|  | Cn1c(=O)c2c(ncn2C)n(C)c1=O [CAF, Coffein] | <0,1% |  | <0,1% | < 0,1% | 100% |  |  | 100% | 1,72 ± 0,16 µg/L |  |  |  |
|  | NC(=O)N1c2ccccc2C=Cc2ccccc21 [CBZ, Carbamazepin] | <0,1% | 100% | 100% | < 0,1% | <0,1% |  |  |  |  | 1,13 ± 0,07 µg/L |  |  |
|  | C[C@H](CCC(=O)O)[C@H]1CC[C@H]2[C@@H]3[C@H](O)C[C@@H]4C[C@H](O)CC[C@]4(C)[C@H]3C[C@H](O)[C@]12C [Cholsäure] | <0,1% |  | <0,1% | <0,1% | <0,1% |  |  |  |  |  | <0,1% |  |
| 0,05 ± 0,02 µg/L | O=C(O)Cc1ccccc1Nc1c(Cl)cccc1Cl [DCF, Diclofenac] | 100% |  | <0,1% | < 0,1% | <0,1% | 100 |  |  |  |  |  |  |
|  | C[C@H](CCC(=O)O)[C@H]1CC[C@H]2[C@@H]3CC[C@@H]4C[C@@H](O)CC[C@]4(C)[C@H]3CC[C@]12C [ILA, Isolithocholsäure] | <0,1% |  | <0,1% | 100% | <0,1% |  |  |  |  |  | 100% | 1,39 ± 0,72 µg/L |
|  | C[C@H](CCC(=O)O)[C@H]1CC[C@H]2[C@@H]3CC[C@@H]4C[C@H](O)CC[C@]4(C)[C@H]3CC[C@]12C [Lithocholsäure] | <0,1% |  | <0,1% | 1,9% | <0,1% |  |  |  |  |  | 0,3% |  |
|  | Cn1c(=O)[nH]c2ncn(C)c2c1=O [Paraxanthin] | <0,1% |  | <0,1% | <0,1% | <0,1% |  |  | <0,1% |  |  |  |  |
|  | C[C@H](CCC(=O)NCCS(=O)(=O)O)[C@H]1CC[C@H]2[C@@H]3CC[C@@H]4C[C@H](O)CC[C@]4(C)[C@H]3CC[C@]12C [Taurolithocholsäure] | <0,1% |  | <0,1% | <0,1% | <0,1% |  |  |  |  |  | 1,2% |  |
|  | Cn1cnc2c1c(=O)[nH]c(=O)n2C [Theobromin] | <0,1% |  | <0,1% | <0,1% | 2,0% |  |  | 0,13% |  |  |  |  |
|  | Cn1c(=O)c2[nH]cnc2n(C)c1=O [Theophyllin] | <0,1% |  | <0,1% | <0,1% | 5,8% |  |  | 12,0% |  |  |  |  |
